Measurements published in patent US8461107B2 (Merck Sharp & Dohme Corp., priority 2008, dated 2013).

Target: T1, HCV genotype 1b (BK) NS3 modified with a R155K mutation (Hepatitis C virus genotype 1b, UniProt P26663, R1181K)
T1 construct: HCV genotype 1b (BK) NS3 modified with a R155K mutation
Test: HCV NS3 protease time-resolved fluorescence (TRF) assay, NS3 protease 1b R155K Ki activity
Assay type: biochemical
Conditions: HCV genotype 1b (BK) NS3 with R155K mutation; TRF peptide substrate 100 nM; Ki derived from IC50
Procedure: The HCV NS3 protease inhibitory activity of the present compounds may be tested using assays known in the art. One such assay is HCV NS3 protease time-resolved fluorescence (TRF) assay as described below and in International Patent Application Publication WO 2006/102087. Other examples of such assays are described in e.g., International Patent Application Publication WO 2005/046712.
A NS3 protease assay can be performed, for example, in a final volume of 100 μl assay buffer containing 50 mM HEPES, pH 7.5, 150 mM NaCl, 15% glycerol, 0.15% TRITON X-100, 10 mM DTT, and 0.1% PEG 8000. NS3 and NS4A protease is pre-incubated with various concentrations of inhibitors in DMSO for 30 minutes. The reaction is initiated by adding the TRF peptide substrate (final concentration 100 nM). NS3 mediated hydrolysis of the substrate is quenched after 1 hour at room temperature with 100 μl of 500 mM MES, pH 5.5. Product fluorescence is detected using either a VICTOR V2 or FUSION fluorophotometer (Perkin Elmer Life and Analytical Sciences) with excitation at 340 nm and emission at 615 nm with a 400 μs delay. Testing concentrations of different enzyme forms are selected to result in a signal to background ratio (S/B) of 10-30. IC50 values are derived using a standard four-parameter fit to the data. Ki values are derived from IC50 values using the following formula, IC50=Ki(1+[S]/KM), Eqn (1), where [S] is the concentration of substrate peptide in the reaction and KM is the Michaelis constant. See P. Gallinari et al., 38 BIOCHEM. 5620-32 (1999); P. Gallinari et al., 72 J. VIROL. 6758-69 (1998); M. Taliani et al., 240 ANAL. BIOCHEM. 60-67 (1996).
The HCV NS3 protease inhibitory activity was measured using the protease time-resolved fluorescence (TRF) assay as described below and in International Patent Application Publication WO 2006/102087. The assay was performed with HCV genotype 1b (BK) NS3 modified with a R155K mutation.
The assay was performed in a final volume of 100 μl in assay buffer containing 50 mM HEPES, pH 7.5, 150 mM NaCl, 15% glycerol, 0.15% TRITON X-100, 10 mM DTT, and 0.1% PEG 8000. NS3 and NS4A protease is pre-incubated with various concentrations of inhibitors in DMSO for 30 minutes. The reaction is initiated by adding the TRF peptide substrate (final concentration 100 nM). NS3 mediated hydrolysis of the substrate is quenched after 1 hour at room temperature with 100 μl of 500 mM MES, pH 5.5. Product fluorescence is detected using either a VICTOR V2 or FUSION fluorophotometer (Perkin Elmer Life and Analytical Sciences) with excitation at 340 nm and emission at 615 nm with a 400 μs delay. Testing concentrations of the enzyme containing the R155K mutation were selected to result in a signal to background ratio (S/B) of 10-30. IC50 values are derived using a standard four-parameter fit to the data. Ki values are derived from IC50 values using the following formula, IC50=Ki(1+[S]/KM), Eqn (1), where [S] is the concentration of substrate peptide in the reaction and KM is the Michaelis constant. See P. Gallinari et al., 38 BIOCHEM. 5620-32 (1999); P. Gallinari et al., 72 J. VIROL. 6758-69 (1998); M. Taliani et al., 240 ANAL. BIOCHEM. 60-67 (1996).

Compound | Ki [nM]
CC[C@@H]1C[C@]1(NC(=O)[C@@H]1C[C@@H]2CN1C(=O)[C@H](C(C)(C)C)NC(=O)O[C@@H]1CCC[C@H]1CCCCCn1c(cc3cc(OC)ccc3c1=O)O2)C(=O)NS(=O)(=O)C1CC1 [(3aR,7S,10S,12R,25aR)-7-tert-butyl-N-((1R,2R)-1-{[(cyclopropylsulfonyl)amino]carbonyl}-2-ethylcyclopropyl)-16-methoxy-5,8,19-trioxo-1,2,3,3a,5,6,7,8,11,12,21,22,23,24,25,25a-hexadecahydro-10H,19H-9,12-methanocyclopenta[18,19][1,10,3,6,12]dioxatriazacyclononadecino[12,11-b]isoquinoline-10-carboxamide] | 0.1 to 0.5
C=C[C@@H]1C[C@]1(NC(=O)[C@@H]1C[C@@H]2CN1C(=O)[C@H](C1CCCC1)NC(=O)O[C@@H]1CCC[C@H]1CCCCCn1c(nc3cc(C)ccc3c1=O)O2)C(=O)NS(=O)(=O)C1CC1 [(3aR,7S,10S,12R,25aR)-7-cyclopentyl-N-((1R,2S)-1-{[(cyclopropylsulfonyl)amino]carbonyl}-2-vinylcyclopropyl)-16-methyl-5,8,19-trioxo-1,2,3,3a,5,6,7,8,11,12,21,22,23,24,25,25a-hexadecahydro-10H,19H-9,12-methanocyclopenta[18,19][1,10,3,6,12]dioxatriazacyclononadecino[11,12-b]quinazoline-10-carboxamide] | < 0.1
CC[C@@H]1C[C@]1(NC(=O)[C@@H]1C[C@@H]2CN1C(=O)[C@H](C1CCCCC1)NC(=O)O[C@@H]1CCC[C@H]1CCCCCn1c(cc3cc(Cl)ccc3c1=O)O2)C(=O)NS(=O)(=O)C1CC1 [(3aR,7S,10S,12R,25aR)-16-chloro-7-cyclohexyl-N-((1R,2R)-1-{[(cyclopropylsulfonyl)amino]carbonyl}-2-ethylcyclopropyl)-5,8,19-trioxo-1,2,3,3a,5,6,7,8,11,12,21,22,23,24,25,25a-hexadecahydro-10H,19H-9,12-methanocyclopenta[18,19][1,10,3,6,12]dioxatriazacyclononadecino[12,11-b]isoquinoline-10-carboxamide] | 0.1 to 0.5
C=C[C@@H]1C[C@]1(NC(=O)[C@@H]1C[C@@H]2CN1C(=O)[C@H](C(C)(C)C)NC(=O)O[C@@H]1CCC[C@H]1C/C=C/CCn1c(cc3cc(Cl)ccc3c1=O)O2)C(=O)NS(=O)(=O)C1CC1 [(3aR,7S,10S,12R,23E,25aS)-7-tert-butyl-16-chloro-N-((1R,2S)-1-{[(cyclopropylsulfonyl)amino]carbonyl}-2-vinylcyclopropyl)-5,8,19-trioxo-1,2,3,3a,5,6,7,8,11,12,21,22,25,25a-tetradecahydro-10H,19H-9,12-methanocyclopenta[18,19][1,10,3,6,12]dioxatriazacyclononadecino[12,11-b]isoquinoline-10-carboxamide] | < 0.1
CC[C@@H]1C[C@]1(NC(=O)[C@@H]1C[C@@H]2CN1C(=O)[C@H](C1CCCCC1)NC(=O)O[C@@H]1CCC[C@H]1C/C=C/CCn1c(cc3cc(Cl)ccc3c1=O)O2)C(=O)NS(=O)(=O)C1CC1 [(3aR,7S,10S,12R,23E,25aS)-16-chloro-7-cyclohexyl-N-((1R,2R)-1-{[(cyclopropylsulfonyl)amino]carbonyl}-2-ethylcyclopropyl)-5,8,19-trioxo-1,2,3,3a,5,6,7,8,11,12,21,22,25,25a-tetradecahydro-10H,19H-9,12-methanocyclopenta[18,19][1,10,3,6,12]dioxatriazacyclononadecino[12,11-b]isoquinoline-10-carboxamide] | 0.1 to 0.5
C=C[C@@H]1C[C@]1(NC(=O)[C@@H]1C[C@@H]2CN1C(=O)[C@H](C1CCCC1)NC(=O)O[C@@H]1CCC[C@H]1CCCCCn1c(cc3ccccc3c1=O)O2)C(=O)NS(=O)(=O)C1CC1 [Example 13, (3aR,7S,10S,12R,25aR)-7-cyclopentyl-N-((1R,2S)-1-{[(cyclopropylsulfonyl)amino]carbonyl}-2-vinylcyclopropyl)-5,8,19-trioxo-1,2,3,3a,5,6,7,8,11,12,21,22,23,24,25,25a-hexadecahydro-10H,19H-9,12-methanocyclopenta[18,19][1,10,3,6,12]dioxatriazacyclotionadecino[12,11-b]isoquinoline-10-carboxamide] | < 0.1
CC[C@@H]1C[C@]1(NC(=O)[C@@H]1C[C@@H]2CN1C(=O)[C@H](C1CCCC1)NC(=O)O[C@@H]1CCC[C@H]1CC/C=C/Cn1c(nc3cc(S(C)(=O)=O)ccc3c1=O)O2)C(=O)NS(=O)(=O)C1CC1 [(3aR,7S,10S,12R,22E,25aS)-7-cyclopentyl-N-((1R,2R)-1-{[(cyclopropylsulfonyl)amino]carbonyl}-2-ethylcyclopropyl)-16-(methylsulfonyl)-5,8,19-trioxo-1,2,3,3a,5,6,7,8,11,12,21,24,25,25a-tetradecahydro-10H,19H-9,12-methanocyclopenta[18,19][1,10,3,6,12]dioxatriazacyclononadecino[11,12-b]quinazoline-10-carboxamide] | < 0.1
CC[C@@H]1C[C@]1(NC(=O)[C@@H]1C[C@@H]2CN1C(=O)[C@H](C1CCCC1)NC(=O)O[C@@H]1CCC[C@H]1CC/C=C/Cc1c(nc3cc(OC)ccn3c1=O)O2)C(=O)NS(=O)(=O)C1CC1 [(3aR,7S,10S,12R,22E,25aS)-7-cyclopentyl-N-((1R,2R)-1-{[(cyclopropylsulfonyl)amino]carbonyl}-2-ethylcyclopropyl)-16-methoxy-5,8,20-trioxo-1,2,3,3a,5,6,7,8,11,12,21,24,25,25a-tetradecahydro-10H,20H-9,12-methanocyclopenta[r]pyrido[1′,2′:1,2]pyrimido[4,5-k][1,10,3,6]dioxadiazacyclononadecine-10-carboxamide] | 0.1 to 0.5
CC[C@@H]1C[C@]1(NC(=O)[C@@H]1C[C@@H]2CN1C(=O)[C@H](C(C)(C)C)NC(=O)O[C@@H]1CCC[C@H]1CCCCCn1c(cc3cc(Cl)ccc3c1=O)O2)C(=O)NS(=O)(=O)C1CC1 [Example 28, (3aR,7S,10S,12R,25aR)-7-tert-butyl-16-chloro-N-((1R,2R)-1-{[(cyclopropylsulfonyl)amino]carbonyl}-2-ethylcyclopropyl)-5,8,19-trioxo-1,2,3,3a,5,6,7,8,11,12,21,22,23,24,25,25a-hexadecahydro-10H,19H-9,12-methanocyclopenta[18,19][1,10,3,6,12]dioxatriazacyclononadecino[12,11-b]isoquinolin-10-carboxamide] | 0.1 to 0.5
C=C[C@@H]1C[C@]1(NC(=O)[C@@H]1C[C@@H]2CN1C(=O)[C@H](C1CCCC1)NC(=O)O[C@@H]1CCC[C@H]1CCC=CCn1c(cccc1=O)O2)C(=O)NS(=O)(=O)C1CC1 [Example 81, (1R,10E, and 10Z,14S,18R,22S,25S)-22-Cyclopentyl-N-((1R,2S)-1-{[(cyclopropyl-sulfonyl)amino]carbonyl}-2-vinylcyclopropyl)-7,20,23-trioxo-2,19-dioxa-8,21,24-tri azatetracyclo[22.2.1.0^3,8.0^14,18]heptacosa-3,5,10-triene-25-carboxamide] | 0.1 to 0.5
CC[C@@H]1C[C@]1(NC(=O)[C@@H]1C[C@@H]2CN1C(=O)[C@H](C1CCCC1)NC(=O)O[C@@H]1CCC[C@H]1CCCCCn1c(cc3cc(OC)ccc3c1=O)O2)C(=O)NS(=O)(=O)C1CC1 [(3aR,7S,10S,12R,25aR)-7-cyclopentyl-N-((1R,2R)-1-{[(cyclopropylsulfonyl)amino]carbonyl}-2-ethylcyclopropyl)-16-methoxy-5,8,19-trioxo-1,2,3,3a,5,6,7,8,11,12,21,22,23,24,25,25a-hexadecahydro-10H,19H-9,12-methanocyclopenta[18,19][1,10,3,6,12]dioxatriazacyclononadecino[12,11-b]isoquinoline-10-carboxamide] | 0.1 to 0.5
